Legend:
Assay type in all cases: in vivo
[1] = system: Downy Brome (Bromus tectorum); assay: Sulfosulfuron efficacy (percent control) on downy brome with differing tallow amine adjuvant formulations (Table 3); parameters: concentration or dose not given beside the values; conditions: for Downy Brome % Control 17 DAT: 17 days after treatment; for Downy Brome % Control 87 DAT: 87 days after treatment
Excerpt: (§1) This effect has been seen with both wild oat (Avena fatua) Table 1 and downy brome (Bromus tectorum) Table 2. The increase in activity has been seen with different formulation of tallow amine cat-ionic surfactant and a pH increasing additive (Table 3). [table]

[2] = system: Downy Brome (Bromus tectorum); assay: Herbicide efficacy (percent control) on downy brome with differing spray adjuvants (Table 2); parameters: concentration or dose not given beside the values; conditions: for Downy Brome % Control 21 DAT: 21 days after treatment; for Downy Brome % Control 68 DAT: 68 days after treatment
Excerpt: as §1

Wild Oat (Avena fatua) = assay: Post-emergence herbicide efficacy (percent control) on wild oats with differing spray adjuvants; conditions: Sulfosulfuron 0.66 oz/Acre; for Wild Oat % Control 14 DAT: 14 days after treatment; for Wild Oat % Control 28 DAT: 28 days after treatment
Excerpt: This invention pertains to the unexpected increase in activity seen when sulfosulfuron was applied with a cat-ionic surfactant plus a pH adjustor that increased the pH to a pH of 9-10.5 (Table 1). As opposed to the increase in activity that was predicted to happen when applied with an oil based or non-ionic surfactant with a pH adjustor as taught by Nalewaja et. al. This effect has been seen with both wild oat (Avena fatua) Table 1 and downy brome (Bromus tectorum) Table 2. The increase in activity has been seen with different formulation of tallow amine cat-ionic surfactant and a pH increasing additive (Table 3). [table]

[3] = adjuvant AQ103 (tallow amine plus aqua ammonia)
[4] = adjuvant AQ104 (tallow amine plus aqua ammonia)
[5] = adjuvant R-11 (non-ionic surfactant)
[6] = adjuvant AQ117 (tallow amine plus aqua ammonia)
[7] = adjuvant AQ118 (tallow amine plus aqua ammonia)
[8] = adjuvant Quad 7 (crop oil plus nitrogen fertilizer)

Row | Structure (SMILES) | Downy Brome % Control 17 DAT [1, 3] | Downy Brome % Control 87 DAT [1, 3] | Downy Brome % Control 17 DAT [1, 4] | Downy Brome % Control 87 DAT [1, 4] | Downy Brome % Control 17 DAT [1, 5] | Downy Brome % Control 87 DAT [1, 5] | Downy Brome % Control 21 DAT [2, 6] | Downy Brome % Control 68 DAT [2, 6] | Downy Brome % Control 21 DAT [2, 5] | Downy Brome % Control 68 DAT [2, 5] | Wild Oat % Control 14 DAT (Wild Oat (Avena fatua); [7]) | Wild Oat % Control 28 DAT (Wild Oat (Avena fatua); [7]) | Wild Oat % Control 14 DAT (Wild Oat (Avena fatua); [8]) | Wild Oat % Control 28 DAT (Wild Oat (Avena fatua); [8])
1 | CCS(=O)(=O)c1nc2ccccn2c1S(=O)(=O)NC(=O)Nc1nc(OC)cc(OC)n1 [Sulfosulfuron] | 30% | 92% | 30% | 90% | 5% | 77% | 78% | 97% | 52% | 62% | 75% | 98% | 48% | 62%
2 | CCCOc1nn(C(=O)[N-]S(=O)(=O)c2ccccc2C(=O)OC)c(=O)n1C.[Na+] [Propoxycarbazone, Propoxycarbazone-sodium] | – | – | – | – | – | – | 73% | 90% | 52% | 67% | – | – | – | –

Source: patent US20090325805A1, “Cationic surfactant based adjuvant systems for some herbicides that increase pH, herbicide solubility and performance” (priority 2004, published 2009)
